From patent US9573972B2, “Nurotoxic sterol glycosides” (priority 2008, dated 2017)
Entries after “also recorded” stand apart in the source; their conditions may differ.

Experiments:
male CD-1 mice = test: Leg extension reflex test, SG-fed mice; format: in vivo, mouse
Text: Five-month old male CD-1 mice (30.1-35.7 g, 7.5 cm-8.8 cm) were purchased from Charles River (Wilmington, Mass.). Adult mice were chosen to mimic the mean age of onset of ALS-PDC (Kurland, L. T. (1988a) Trends Neurosci. 11, 51-4; Kurland, L. T., et al. (1994) Amyotrophic lateral sclerosis-parkinsonism-dementia complex on Guam: epidemiologic and etiological perspectives. 109-131). Thirty mice for the SG study were randomly divided into 2 groups (14 control and 16 experimental animals). All animals were housed singly in a virus-free barrier facility in a room maintained at 22° C. under a 12 hour light/dark cycle. The mice were provided ad libitum access to food and water.
The synthetic SG was mixed with finely ground Purina Chow mouse pellets (Mouse Diet™, Purina) to create the experimental pellets with a SG content of 1000 μg per pellet. Dry materials were blended with a sterile silicon spatula. For every 5 g of standard feed, 2.5 mL of doubly-distilled water (dd)H2O was added and the dough was kneaded and round up into pellets. […] SG feeding was conducted daily for 15 weeks and mice were behaviorally monitored until sacrifice at 35 weeks (time point 1) or 52 weeks (time point 2).
Leg extension reflex test: The leg extension reflex test was used as a measure of motor neuron dysfunction (Barneoud et al., 1999). […] The leg extension reflex was measured three times per week in each animal. […]

Active Caspase-3 = test: Anti-active caspase-3 immunofluorescence; format: in vivo, mouse
Protocol: Tissue-mounted slides were processed for fluorescence microscopy as follows: Sections were rinsed in coplin jars for 45 minutes at room temperature (RT) in three changes of PBS. Sections were then incubated at RT for 30 minutes in a blocking permeabilization solution made of 5% normal goat serum (NGS), 5% normal rabbit serum (NRS) or 5% BlokHen II (Ayes Labs, Inc., Tigard, Oreg.), 0.05% Triton X-100 and PBS. Subsequently, the blocking solution was tipped off and the slides were rinsed in PBS for 2 minutes. […]

[1] = SG-fed vs control, Time-point 2 (52 wk)

For CC[C@H](/C=C/[C@@H](C)[C@H]1CC[C@H]2[C@@H]3CC=C4C[C@@H](O[C@@H]5O[C@H](CO)[C@@H](O)[C@H](O)[C@H]5O)CC[C@]4(C)[C@H]3CC[C@]12C)C(C)C [SG, Stigmasterol β-D-Glucopyranoside], the Leg extension (male CD-1 mice; [1]) was “Leg extension* (*p < 0.05)”, the “Leg extension reflex test performance (score 0-4)” value (male CD-1 mice; SG-fed, duration of study) was “decreased; also recorded: steady decline in performance” and the “Apoptotic cells over time” value (Active Caspase-3; SG-fed group over time (35 to 52 wk)) was “Apoptotic cells (SG-fed group over time) (ns)”. For the same compound, the “Anti-active caspase 3 immunoreactive cells” value (Active Caspase-3; [1]) was “did not reach significance and (ns)”.
